# From US11229398B2, “Electrode assemblies for neurostimulation treatment” (Cardionomic, Inc., priority 2016, dated 2022)
# Tested on: normal, non-HF ovine model
# Experiment: Change in contractility (max(dP/dt) from pressure measurements as surrogate) and beat-by-beat correlation of right and left ventricle contractility after an injection
# Assay type: in vivo
# Conditions: for Contractility % Increase: after the injection, max(dP/dt) used as surrogate for contractility
# Text: The correlation was a heartbeat-by-heartbeat analysis. Pressure measurements, taken by a Millar catheter comprising a MEMS pressure sensor, in units of max(dP/dt) was used as a surrogate for contractility.
# The first change, a dobutamine injection, provided a very high contractility increase greater than 500%. The average correlation between right ventricle contractility and left ventricle contractility was very good at 0.91, where 1.00 is a perfect correlation. Accordingly, if a subject is given a dobutamine injection, measuring changes to right ventricle contractility can provide accurate information about changes to left ventricle contractility. The first change was repeated three times.
# The second change, calcium injection at 5 mL, provided a contractility increase of about 20%. […] The average correlation between right ventricle contractility and left ventricle contractility using a Millar (MEMS) sensor on a catheter was very good at 0.91. The average correlation between right ventricle contractility and left ventricle contractility using a fluid-filled lumen of a Swan-Ganz catheter in communication with an external pressure sensor was also very good at 0.87. Accordingly, under certain circumstances such as measurement of an animal (normal, non-HF ovine model) model, if a subject is given a calcium injection, measuring changes to right ventricle contractility with a MEMS sensor or a fluid filled lumen can provide accurate information about changes to left ventricle contractility.
# The fourth change, neurostimulation as described herein, provided a contractility increase of about 28%. The correlation between right ventricle contractility and left ventricle contractility was very good at 0.90. Accordingly, if a subject is given neurostimulation, measuring changes to right ventricle contractility can provide accurate information about changes to left ventricle contractility. […] Thereafter, the left ventricle contractility tapered off logarithmically or exponentially, but the right ventricle contractility decreased very slowly. These differences help to show why the correlation between left ventricle contractility and right ventricle contractility are poorly correlated for calcium injections. The fourth change was not repeated.
# [1] = first several beats after the injection
substance,measurement,setting,value
calcium [Calcium Injection (5 mL)],Contractility % Increase,,~20%
same,Contractility % Increase,listed as calcium injection,about 20%
same,left ventricle contractility,[1],increased dramatically
same,right ventricle contractility,[1],only slightly increased
